In PMC12883167 (Bioorganic & medicinal chemistry letters, 2019):
Several values for one entry are separate records, joined by “and”; a condition that tells them apart may be missing. Identical values can stand only once. Numbered stars: 1 amine (or outer) side, 2 acyl side, 3 side chain; on linkers, the order of the positions; unused ones are H or OH. Square brackets hold non-standard residues; d marks the D form. Peptide text beside a SMILES is read from it. * marks the point of attachment. cisHyp = O=C(O)[C@@H]1C[C@H](O)CN1; Hyp = O=C(O)[C@@H]1C[C@@H](O)CN1; Chg = N[C@H](C(=O)O)C1CCCCC1; Phg = N[C@H](C(=O)O)c1ccccc1; Tle = CC(C)(C)[C@H](N)C(=O)O; NMeV = CN[C@H](C(=O)O)C(C)C; αMeP = C[C@@]1(C(=O)O)CCCN1; Pip = O=C(O)[C@@H]1CCCCN1; Ac6c = NC1(C(=O)O)CCCCC1; Ac5c = NC1(C(=O)O)CCCC1; Cbz = O=C(OCc1ccccc1)*; CO = O=C([*:1])[*:2]; Bz = O=C(c1ccccc1)*; NHPh = c1ccc(N*)cc1; CH2F = FC*

Assays:
[1] = target: T1, MALT1 (Homo sapiens, UniProt Q9UDY8); experiment: MALT1 biochemical assay; settings: at 5 μM
T1 sequence (Q9UDY8 1-824): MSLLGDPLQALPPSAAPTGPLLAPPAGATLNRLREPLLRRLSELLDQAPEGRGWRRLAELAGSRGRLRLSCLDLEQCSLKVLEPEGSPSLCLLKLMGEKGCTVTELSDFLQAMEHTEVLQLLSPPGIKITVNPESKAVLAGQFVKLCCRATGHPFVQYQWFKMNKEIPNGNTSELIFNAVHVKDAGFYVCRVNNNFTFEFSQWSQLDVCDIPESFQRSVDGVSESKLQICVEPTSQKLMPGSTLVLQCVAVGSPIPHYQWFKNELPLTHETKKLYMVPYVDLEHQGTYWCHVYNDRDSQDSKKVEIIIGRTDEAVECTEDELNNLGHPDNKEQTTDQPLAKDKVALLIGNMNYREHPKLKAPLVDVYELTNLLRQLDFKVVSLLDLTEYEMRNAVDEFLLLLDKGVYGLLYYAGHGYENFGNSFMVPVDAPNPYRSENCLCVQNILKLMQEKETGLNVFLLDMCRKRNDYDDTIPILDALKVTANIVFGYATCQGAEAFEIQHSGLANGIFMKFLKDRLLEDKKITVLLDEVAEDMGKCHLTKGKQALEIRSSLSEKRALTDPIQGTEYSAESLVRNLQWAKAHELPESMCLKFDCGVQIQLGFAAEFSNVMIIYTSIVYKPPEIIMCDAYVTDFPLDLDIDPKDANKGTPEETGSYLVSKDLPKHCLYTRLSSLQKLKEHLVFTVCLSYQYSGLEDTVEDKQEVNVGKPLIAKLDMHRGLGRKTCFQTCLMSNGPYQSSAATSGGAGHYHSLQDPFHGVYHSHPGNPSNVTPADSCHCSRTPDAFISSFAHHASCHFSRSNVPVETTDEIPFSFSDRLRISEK

[2] = target: T2, MALT1 protease (Homo sapiens, UniProt Q9UDY8); type: cell-based; settings: Cell (Glo), GloSensor reporter, PMA/IO activated Raji cells
T2 sequence (Q9UDY8 1-824): T1 sequence (Q9UDY8 1-824)

[3] = system: RelB cleavage (MALT1 protease activity) in OCI-Ly3 cells; experiment: Inhibition of RelB cleavage in OCI-Ly3 cells by Western blot; type: cell-based; settings: at 20 μM
[4] = system: OCI-Ly3 cells; experiment: OCI-Ly3 cell proliferation assay
[5] = system: trypsin; experiment: Protease selectivity profiling, trypsin; type: biochemical; settings: at 100 nM
[6] = Plasma levels upon IV and IP dosing in mice; type: in vivo
[7] = target: T1, MALT1; settings: PD studies ref 20; cited from earlier work
[8] = system: ABC-DLBCL xenograft models; settings: two ABC-DLBCL xenograft models ref 20; cited from earlier work
[9] = system: calpain; experiment: Protease selectivity profiling, calpain; type: biochemical; settings: at 100 nM
[10] = target: cathepsin B (Homo sapiens, UniProt P07858); experiment: Protease selectivity profiling, cathepsin B; type: biochemical; settings: at 100 nM
[11] = target: cathepsin S (Homo sapiens, UniProt P25774); experiment: Protease selectivity profiling, cathepsin S; type: biochemical; settings: at 100 nM
Chain of cathepsin S (P25774 115-331, species assumed): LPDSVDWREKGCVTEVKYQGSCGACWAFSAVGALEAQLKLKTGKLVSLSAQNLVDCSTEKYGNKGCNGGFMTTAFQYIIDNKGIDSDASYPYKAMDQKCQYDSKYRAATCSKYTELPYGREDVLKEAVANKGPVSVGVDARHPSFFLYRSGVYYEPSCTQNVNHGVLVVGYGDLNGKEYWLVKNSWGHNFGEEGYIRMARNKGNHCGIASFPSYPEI

[12] = system: panel of 26 proteases, primarily caspases and cathepsins; experiment: Selectivity panel of 26 proteases; type: biochemical; settings: profiling at lower concentrations

| SMILES | IC50 [2] | other results |
| --- | --- | --- |
| CCC(=O)[C@H](CCCNC(=N)N)NC(=O)[C@@H]1CCCN1C(=O)[C@@H](NC(=O)[C@H](CC(C)C)NC(=O)OCc1ccccc1)C(C)C [Compound 2] | > 20000 nM | activity in the biochemical assay [1]: no activity; inhibition of RelB cleavage [3]: no effects; activity in the cell (proliferation) assay, in words [4]: no activity |
| CN[C@H](C(=O)N1CCC[C@H]1C(=O)N[C@@H](CCCNC(=N)N)C(=O)CF)C(C)C [Compound 3] (H-[NMeV]-Pro-Arg-CH2F) | > 20000 nM | activity in the cell (proliferation) assay, in words [4]: inactive |
| CC(C)[C@H](NC(=O)OCc1ccccc1)C(=O)N1CCC[C@H]1C(=O)N[C@@H](CCCNC(=N)N)C(=O)CF [Compound 4, Z-VPR-fmk] (Cbz-Val-Pro-Arg-CH2F) | 1960 nM | – |
| CC(C)[C@@H](C(=O)N1CCC[C@H]1C(=O)N[C@@H](CCCNC(=N)N)C(=O)CF)N(C)C(=O)OCc1ccccc1 [Compound 5] (Cbz-[NMeV]-Pro-Arg-CH2F) | 3000 nM | – |
| CC(C)[C@H](NC(=O)c1ccccc1)C(=O)N1CCC[C@H]1C(=O)N[C@@H](CCCNC(=N)N)C(=O)CF [Compound 19] (Bz-Val-Pro-Arg-CH2F) | 640 nM | – |
| CC(C)[C@H](NC(=O)c1ccccc1Br)C(=O)N1CCC[C@H]1C(=O)N[C@@H](CCCNC(=N)N)C(=O)CF [Compound 20] | 1110 nM | – |
| CC(C)[C@H](NC(=O)c1cccc(Br)c1)C(=O)N1CCC[C@H]1C(=O)N[C@@H](CCCNC(=N)N)C(=O)CF [Compound 21] | 180 nM | – |
| CC(C)[C@H](NC(=O)c1ccc(Br)cc1)C(=O)N1CCC[C@H]1C(=O)N[C@@H](CCCNC(=N)N)C(=O)CF [Compound 22] | 71 nM and 70 nM | potency against trypsin [5]: > 80%; plasma levels [6]: moderate plasma levels for several hours; in vivo inhibition of MALT1 activity [7]: in vivo inhibition of MALT1 activity; effects on tumor growth [8]: moderate effects on tumor growth |
| CC(C)[C@H](NC(=O)c1ccc(Cl)cc1)C(=O)N1CCC[C@H]1C(=O)N[C@@H](CCCNC(=N)N)C(=O)CF [Compound 23] | 180 nM | – |
| CC(C)[C@H](NC(=O)c1ccc(C#N)cc1)C(=O)N1CCC[C@H]1C(=O)N[C@@H](CCCNC(=N)N)C(=O)CF [Compound 24] | 710 nM | – |
| CC(C)[C@H](NC(=O)c1ccc(C(F)(F)F)cc1)C(=O)N1CCC[C@H]1C(=O)N[C@@H](CCCNC(=N)N)C(=O)CF [Compound 25] | 230 nM | – |
| COc1ccc(C(=O)N[C@H](C(=O)N2CCC[C@H]2C(=O)N[C@@H](CCCNC(=N)N)C(=O)CF)C(C)C)cc1 [Compound 26] | 800 nM | – |
| CC(C)c1ccc(C(=O)N[C@H](C(=O)N2CCC[C@H]2C(=O)N[C@@H](CCCNC(=N)N)C(=O)CF)C(C)C)cc1 [Compound 27] | 70 nM | – |
| CC(C)[C@H](NC(=O)C1CCCCC1)C(=O)N1CCC[C@H]1C(=O)N[C@@H](CCCNC(=N)N)C(=O)CF [Compound 28] | 640 nM | – |
| CC(C)[C@H](NC(=O)Nc1ccccc1)C(=O)N1CCC[C@H]1C(=O)N[C@@H](CCCNC(=N)N)C(=O)CF [Compound 29] ({NHPh-CO}-Val-Pro-Arg-CH2F) | 170 nM | – |
| CC(C)[C@H](NC(=O)Nc1ccc(Cl)cc1)C(=O)N1CCC[C@H]1C(=O)N[C@@H](CCCNC(=N)N)C(=O)CF [Compound 30] | 110 nM | – |
| CC(C)C[C@H](NC(=O)OCc1ccccc1)C(=O)N1CCC[C@H]1C(=O)N[C@@H](CCCNC(=N)N)C(=O)CF [Compound 31] (Cbz-Leu-Pro-Arg-CH2F) | 3420 nM | – |
| CC[C@H](C)[C@H](NC(=O)OCc1ccccc1)C(=O)N1CCC[C@H]1C(=O)N[C@@H](CCCNC(=N)N)C(=O)CF [Compound 32] (Cbz-Ile-Pro-Arg-CH2F) | 1860 nM | – |
| N=C(N)NCCC[C@H](NC(=O)[C@@H]1CCCN1C(=O)[C@H](Cc1ccccc1)NC(=O)OCc1ccccc1)C(=O)CF [Compound 33] | 2030 nM | – |
| N=C(N)NCCC[C@H](NC(=O)[C@@H]1CCCN1C(=O)[C@@H](NC(=O)OCc1ccccc1)C1CCCCC1)C(=O)CF [Compound 34] (Cbz-[Chg]-Pro-Arg-CH2F) | 150 nM | – |

| SMILES | IC50 [2] | other results |
| --- | --- | --- |
| CC(C)(C)[C@H](NC(=O)OCc1ccccc1)C(=O)N1CCC[C@H]1C(=O)N[C@@H](CCCNC(=N)N)C(=O)CF [Compound 35] (Cbz-[Tle]-Pro-Arg-CH2F) | 710 nM | – |
| N=C(N)NCCC[C@H](NC(=O)[C@@H]1CCCN1C(=O)[C@@H](NC(=O)OCc1ccccc1)c1ccccc1)C(=O)CF [Compound 36] (Cbz-[Phg]-Pro-Arg-CH2F) | 1430 nM | – |
| N=C(N)NCCC[C@H](NC(=O)[C@@H]1CCCN1C(=O)C1(NC(=O)OCc2ccccc2)CCCCC1)C(=O)CF [Compound 37] (Cbz-[Ac6c]-Pro-Arg-CH2F) | 6000 nM | – |
| N=C(N)NCCC[C@H](NC(=O)[C@@H]1CCCN1C(=O)C1(NC(=O)OCc2ccccc2)CCCC1)C(=O)CF [Compound 38] (Cbz-[Ac5c]-Pro-Arg-CH2F) | 5380 nM | – |
| CC(C)[C@H](NC(=O)OCc1ccccc1)C(=O)N[C@@H](CO)C(=O)N[C@@H](CCCNC(=N)N)C(=O)CF [Compound 39] | 149 nM | – |
| CC(C)[C@H](NC(=O)OCc1ccccc1)C(=O)N1CCCC[C@H]1C(=O)N[C@@H](CCCNC(=N)N)C(=O)CF [Compound 40] (Cbz-Val-[Pip]-Arg-CH2F) | 144 nM | – |
| CC(C)[C@H](NC(=O)OCc1ccccc1)C(=O)N1C[C@H](O)C[C@H]1C(=O)N[C@@H](CCCNC(=N)N)C(=O)CF [Compound 41] (Cbz-Val-[Hyp]-Arg-CH2F) | 209 nM | – |
| CC(C)[C@H](NC(=O)OCc1ccccc1)C(=O)N1C[C@@H](O)C[C@H]1C(=O)N[C@@H](CCCNC(=N)N)C(=O)CF [Compound 42] (Cbz-Val-[cisHyp]-Arg-CH2F) | 239 nM | – |
| CC(C)[C@H](NC(=O)OCc1ccccc1)C(=O)N1CCC[C@@]1(C)C(=O)N[C@@H](CCCNC(=N)N)C(=O)CF [Compound 43] (Cbz-Val-[αMeP]-Arg-CH2F) | 873 nM | – |
| CC(C)[C@H](NC(=O)c1ccc(Br)cc1)C(=O)N[C@@H](CO)C(=O)N[C@@H](CCCNC(=N)N)C(=O)CF [Compound 44] | – | activity against calpain [9]: active; activity against cathepsin B [10]: active; activity against cathepsin S [11]: active |
| CC(C)[C@H](NC(=O)c1ccc(Br)cc1)C(=O)N1C[C@H](O)C[C@H]1C(=O)N[C@@H](CCCNC(=N)N)C(=O)CF [Compound 45] | 85 nM | – |
| CC(C)[C@H](NC(=O)c1ccc(Br)cc1)C(=O)N1CCCC[C@H]1C(=O)N[C@@H](CCCNC(=N)N)C(=O)CF [Compound 46] | 327 nM | selectivity in protease panel [12]: the most selective compound; activity against cathepsin S [11]: highest activity |
| CC(C)[C@H](NC(=O)c1ccc(Br)cc1)C(=O)N1CC[C@H]1C(=O)N[C@@H](CCCNC(=N)N)C(=O)CF [Compound 47] | 219 nM | – |
| CC(C)[C@H](NC(=O)c1ccc(Br)cc1)C(=O)N1COC[C@H]1C(=O)N[C@@H](CCCNC(=N)N)C(=O)CF [Compound 48] | 77 nM | – |
| CC(C)[C@H](NC(=O)c1ccc(Br)cc1)C(=O)N1CCOC[C@H]1C(=O)N[C@@H](CCCNC(=N)N)C(=O)CF [Compound 49] | 174 nM | – |
| CC(C)[C@H](NC(=O)c1ccc(Br)cc1)C(=O)N1CCC[C@@H]1C(=O)N[C@@H](CCCNC(=N)N)C(=O)CF [Compound 50] | 17500 nM | – |
| N=C(N)NCCC[C@H](NC(=O)[C@@H]1CCCN1C(=O)[C@@H](NC(=O)c1ccc(Br)cc1)C1CCCCC1)C(=O)CF [Compound 51] | 43 nM | – |
| N=C(N)NCCC[C@H](NC(=O)[C@H](CO)NC(=O)[C@@H](NC(=O)c1ccc(Br)cc1)C1CCCCC1)C(=O)CF [Compound 52] | 87 nM | – |
| N=C(N)NCCC[C@H](NC(=O)[C@@H]1C[C@@H](O)CN1C(=O)[C@@H](NC(=O)c1ccc(Br)cc1)C1CCCCC1)C(=O)CF [Compound 53] | 65 nM | – |
| CC(C)[C@H](NC(=O)OCc1ccccc1)C(=O)N[C@@H](CCCNC(=N)N)C(=O)N1CCC[C@H]1C(=O)N[C@@H](CCCNC(=N)N)C(=O)CF [Z-VRPR-fmk, reference compound] | – | inhibition of RelB cleavage [3]: partial inhibition |
